Results on three compounds are retold here after BindingDB's records for doi:10.1021/jm981078h (Leiden University, 1999).

This assay concerns the target Asialoglycoprotein receptor 1 (Rattus norvegicus) (UniProt P02706). Nature of the assay: Affinity tested by in vitro competition assay of [125I]ASOR binding to parenchymal rat liver cells.

As a reminder, the Ki is a dissociation constant, usually derived from enzyme kinetics or from competition with a known ligand. High values mean lower affinity, low ones higher affinity.

Asialoglycoprotein receptor 1 (Rattus norvegicus), sequence (P02706 whole entry, looked up): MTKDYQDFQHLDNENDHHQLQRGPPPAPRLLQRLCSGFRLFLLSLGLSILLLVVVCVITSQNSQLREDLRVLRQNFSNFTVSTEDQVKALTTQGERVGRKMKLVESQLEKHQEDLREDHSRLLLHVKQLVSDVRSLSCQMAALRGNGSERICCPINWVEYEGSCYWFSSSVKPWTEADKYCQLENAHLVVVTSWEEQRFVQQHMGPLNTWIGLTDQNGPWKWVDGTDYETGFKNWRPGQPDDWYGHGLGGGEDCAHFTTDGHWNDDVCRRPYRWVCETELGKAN

The compound `CC(C)CCCC(C)[C@H]1CC[C@H]2[C@@H]3CC=C4C[C@@H](OC(=O)CNC(=O)CCCCC(=O)NCC(=O)NC(COCOCCOCCOCCOCCO[C@@H]5O[C@@H](CO)[C@H](O)[C@H](O)[C@@H]5O)(COCOCCOCCOCCOCCO[C@@H]5O[C@@H](CO)[C@H](O)[C@H](O)[C@@H]5O)COCOCCOCCOCCOCCO[C@@H]5O[C@@H](CO)[C@H](O)[C@H](O)[C@@H]5O)CC[C@]4(C)[C@H]3CC[C@]12C` (stereo partly drawn) [TG(20)C-Galactoside analogue] showed an inhibition constant (Ki) of 200 nM. With `O=C(CCCCO[C@@H]1O[C@@H](CO)[C@H](O)[C@H](O)[C@@H]1O)NCCCNC(=O)CCOCC(COCCC(=O)NCCCNC(=O)CCCCO[C@@H]1O[C@@H](CO)[C@H](O)[C@H](O)[C@@H]1O)(COCCC(=O)NCCCNC(=O)CCCCO[C@@H]1O[C@@H](CO)[C@H](O)[C@H](O)[C@@H]1O)NC(=O)CNC(=O)OCc1ccccc1` [Galactoside analogue] the figure was 93 nM. With `O=C(CCCCO[C@@H]1O[C@@H](CO)[C@H](O)[C@H](O)[C@@H]1O)NCC(=O)NCCCC(=O)OCC(COC(=O)CCCNC(=O)CNC(=O)CCCCO[C@@H]1O[C@@H](CO)[C@H](O)[C@H](O)[C@@H]1O)(COC(=O)CCCNC(=O)CNC(=O)CCCCO[C@@H]1O[C@@H](CO)[C@H](O)[C@H](O)[C@@H]1O)NC(=O)CNC(=O)OCc1ccccc1` [Galactoside analogue] the figure was 93 nM.
